Measurements as given in the NIST ThermoML archive (doi:10.1016/j.jct.2012.03.031).
Numbers after ± are expanded uncertainties.

Conditions: Crystal 1; visual observation

Triple point temperature: 288.43 ± 0.39 K
SMILES: CCCCc1ccc(C(=O)Oc2ccc(C#N)c(F)c2)cc1 [4-cyano-3-fluorophenyl 4-butylbenzoate]
